“Also recorded” adds a separate entry of the source.
Columns and labels:
[1] = test system: ID8 tumor bearing mice; experiment: Survival of ID8 tumor bearing mice (AMD3100/checkpoint inhibitor combination study); type: in vivo, C57BL/6 mice; settings: vs saline treated control; AMD3100 3 mg/kg IP every other day for three weeks alternating with αPD-1 or αPD-L1 200 μg/mouse IP; Log-rank test
Procedure: Luciferase-expressing ID-8 ovarian cancer cells (3×10^6 cells) were injected into C57BL/6 female mice (30/group). […] Starting three weeks post tumor inoculation, AMD3100 (3 mg/kg) was injected IP every other day for three weeks alternating with αPD-1 or αPD-L1 (200 μg/mouse) by IP injection.
Tissue Culture: The ID8 ovarian cancer cells, a kind gift from Kathy Roby (University of Kansas Medical Center, Kansas City, Kans.), were transfected with luciferase lentiviral vector and a clone stably expressing luciferase was recovered, here named Luc-ID8. Cells were maintained at 37° C. in DMEM with 2 mmol/L L-glutamine, 10 units/ml penicillin, 10 μg/ml streptomycin, and 10% fetal bovine serum in a humidified atmosphere with 5% CO2. Cells were cultured until 80% confluent, then harvested with Trypsin EDTA (Mediatech) for animal injections.
Treatment Agents: AMD3100 was purchased from Abcam. 10 mg power was dissolved in 16.7 ml saline to achieve concentration of 0.6 mg/ml and 100 μl was injected for each treatment. Anti-mouse PD-1 and anti-mouse PD-L1 were purchased from Biocell. […]

[2] = test system: tumor-infiltrated lymphocytes; experiment: Flow cytometry immune profiling of tumor-infiltrating lymphocytes from ID8 tumors a week after the last treatment; type: in vivo, C57BL/6 mice; settings: vs saline control
Procedure: Luciferase-expressing ID-8 ovarian cancer cells (3×10^6 cells) were injected into C57BL/6 female mice (30/group). Tumor initiation was confirmed 20 days later by IVIS imaging, and tumor-bearing animals were randomized into the treatment groups indicated in Table 2. Starting three weeks post tumor inoculation, AMD3100 (3 mg/kg) was injected IP every other day for three weeks alternating with αPD-1 or αPD-L1 (200 μg/mouse) by IP injection. 3 mg/kg AMD3100 is the murine equivalent of the approved human dose of 0.24 mg/kg based on allometric scaling.
Some animals from each treatment group were euthanized by i.p. administration of Ketamine (9 mg/ml in saline) and Xylazine (0.9 mg/ml in saline) a week after the last treatment for evaluation of tumor-infiltrating lymphocytes. Tumors were harvested and processed for immune profiling.
Flow cytometry: Tumors were mechanically disaggregated using razor blades, and cells were further separated by incubation at 37° C. for 2 hours in RPMI 1640 with collagenase type IV (2 mg/ml, Sigma), hyaluronidase (0.1 mg/ml, Sigma), and BSA (2 mg/ml, Sigma). Cell suspensions were passed through 100 μm filters to remove any remaining aggregates. Cells were washed with staining buffer (Biolegend) and stained with conjugated antibodies. All live cells were determined by the LIVE/DEAD® staining (ThermoFisher). Intracellular protein detection was realized by fixation/permeabilization reagents from BioLegend or eBioscience. Flow cytometry were performed using BD LSRFortessa X-20 (BD Biosciences) and data were analyzed by FlowJo V10.
Assessment of Results: Prism 6.0 software (GraphPad Software) was used for all statistical analyses. Statistical differences between three or more experimental groups were analyzed using Two-Way ANOVA, followed by Tukey's multiple comparison tests or Student T tests. Survival was analyzed with the Log-rank test.

[3] = test system: intratumoral FoxP3+ regulatory T cells (Treg); settings: literature statement; cited from earlier work
[4] = percentage of total CD8+ T cells in tumors

c1cc(CN2CCCNCCNCCCNCC2)ccc1CN1CCCNCCNCCCNCC1 [AMD3100, AMD3100 (plerixafor)]
survival time of ID8 tumor bearing mice [1]: significantly extended
proportions of CD40L+IL-2+ cells in CD4+FoxP3+CD25− population (helper-like T cells) ([2]; in tumors): significantly increased; also recorded: promoted replacement of Tregs by helper T cells
proportions of intratumor Tregs ([2]; percent of total CD4+ T cells in tumors): significantly reduced; also recorded: decreased
IFN-γ expression in intratumor CD8+ T cells [2, 4]: significantly increased; also recorded: enhanced
intratumor CD8+ memory T cells (CD27+CD44+ population in TILs) [2, 4]: significantly increased
levels of intratumoral FoxP3+ regulatory T cells (Treg) [3]: can be reduced

Reference: patent publication US20200093789A1, “Cancer Treatment with a CXCL12 Signaling Inhibitor and an Immune Checkpoint Inhibitor” (The General Hospital Corporation, priority 2017, published 2020)
